# From patent US20250369032A1 (priority 2023, published 2025)
# Values joined by “and” are separate entries in the source; they are usually repeats but may differ in a detail not shown here. Equal entries are not always repeated. Where two headings read alike, the source gives them in different places.
# How the values were obtained:
# [1] = biological target: T1, alkaline phosphatase (Bos taurus, UniProt P19111)
# Method: Two different dosing concentrations were evaluated, 10 μL of test chemical added to 90 μL of alkaline phosphatase reaction reagent and 50 μL of test chemical added to 50 μL of alkaline phosphatase reaction reagent; all aliquoted in 96-well plates.
# • 1. Alkaline phosphatase reaction reagent (fresh, 1:100) • a. Take 4 mL of AP (1:10) stock solution, add to 36 mL PBS. Vortex mix and then invert to mix 10 times • 2. Prepare alkaline phosphatase reaction reagent for every condition • a. 200 μL AP (1:10) in 1.8 mL PBS • b. […] 200 μL AP (1:10) in 1.8 mL Acetone • 3. Prepare 96-well plates for dosing • 4. Prepare 96-well plates for PNPP reading (3 wells for each test chemical) • a. Aliquot with 200 μL PNPP
# • 1. Set 1 • a. 10 μL chemical added to 90 μL AP reaction reagent • 2. Set 2 • a. 50 μL chemical added to 50 μL AP reaction reagent • 3. Incubate for 3 hours • a. To the prepared 96-well plate with 200 μL PNPP aliquoted, add 20 μL • b. […] To the prepared 96-well plate with 200 μL PNPP aliquoted, add 20 μL • b.
# In our next study, we focused on ethanol and buffered saline (potassium chloride, potassium phosphate monobasic, sodium chloride, sodium phosphate dibasic) as our solvents.
# • 1. Alkaline phosphatase reaction reagent • a. 1:100 • i. PBS: Take 400 μL of AP (1:10) stock solution, add to 3.6 mL PBS. Vortex mix and then invert to mix 10 times • ii. […] Vortex mix and then invert to mix 10 times • b. 1:1000 • i. PBS: Take 400 μL of AP (1:100) stock solution, add to 3.6 mL PBS. Vortex mix and then invert to mix 10 times • ii. […] Vortex mix and then invert to mix 10 times • 2. Prepare 0.5 mL microcentrifuge tubes for dosing • a. One set for room temperature, one set for 37° C. • 3. Prepare 96-well plates for PNPP reading (3 wells for each test chemical) • a. Aliquot with 200 μL PNPP
# • 1. In each microcentrifuge tube for each condition, add 180 μL of the corresponding AP reaction reagent • 2. Add 20 μL of the test chemical to each microcentrifuge tube • 3. Incubate for 4 hours (one set at room temperature; one set at 37° C.) • 4. To prepared 96-well plates with 200 μL PNPP aliquoted, add 20 μL of each microcentrifuge tube to the corresponding well • 5.
# [2] = test system: skin; details: cited from earlier work
# [3] = biological target: T1, alkaline phosphatase; assay type: biochemical; design: purchased Sigma Aldrich, St. Louis, MO P0114 (original source); P7640 (second source, 'new AP' condition only)
# [4] = test system: endogenous skin phosphatase; assay type: biochemical, porcine; details: optical density compared to the naïve condition
# Method: Our next studies involved applying the test substance (500 μL) directly to the epidermis side of previously frozen porcine skin (Spear Products, Coopersburg, PA) that is placed in a holder that only exposes the epidermis side for 30 minutes, adding phosphate buffered saline (PBS) with added sodium azide (metabolic inhibitor that ensure no viable tissue), then aliquoting into cuvettes to read at an optical density of 300 nm. […] So, at the end of the initial studies described above, almost out of frustration, we tried to probe for released phosphatase activity using p-Nitrophenyl phosphate disodium salt (PNPP; Sigma Aldrich, St. Louis, MO) substrate solution to detect any presence of phosphatase.
# • 1. Thaw 2 pieces of frozen porcine skin • a. Punch out as many skin discs and mount in holders • 2. Label cuvettes (3 for each chemical)
# • 1. Add 500 μL of test chemical to holder; incubate at room temperate for 30 minutes • 2. After 30 minutes, add 2 mL of PBS-Azide to both the holder containing the test chemical; forcefully pipette and re-pipette 10 times • 3. From the holder, aliquot 400 μL into 3 cuvettes; forcefully pipette and re-pipette 3 times before dispensing into cuvettes
# Skin corrosion by GHS Category 1 dermal corrosive chemicals results in the disintegration of the epidermis into the dermis.
# [5] = biological target: T1, alkaline phosphatase; assay type: biochemical; design: purchased Sigma Aldrich, St. Louis, MO P0114 (original source); P7640 (second source, 'new AP' condition only); remark: listed apart in the source
# Source text: Our next study focused on an in vitro method of detecting the potential of dermal corrosives to inhibit nonspecific phosphatases that may be released from the skin. We decided to test pure […] instead of relying on endogenous skin phosphatase. Alkaline phosphatase (Sigma Aldrich, St. Louis, MO) was purchased and suspended to make the reaction reagent (10,000 units). […] We note that the ratio used was 0.1 g/ml or 10% chemical-which is far in excess of any pharmaceutical applications. We further note that pharmaceutical enzyme inhibition tests, studies an use involve highly specific active site binding and these assays are conducted at ratios of micrograms-femtograms per ml. These studies are done at these ranges because these are the realistic concentrations for drug applications and therapeutics. […] So when a 50 Kg human consumes the tables, the tissues will be exposed at a 5 mg/50 kg=0.1 mg/kg=0.0000001 g/ml.
# Next two quantitative methods were evaluated: 1) using the discs parts from our OptiSafe™ test method and 2) directly into the 24-well plate.
# • 1. Alkaline phosphatase reaction reagent • a. Take 1 vial of AP, add 1 mL of PBS, mix by pipette/re-pipette 10 times • b. To a 50 mL conical tube, add 1 mL of the AP solution prepared above and 40 mL of PBS • 2. Prepare two 24-well plates (1 with discs, 1 without discs) • 3. […] Aliquot 200 μL PNPP and PBS
# • 1. Plate 1 (No Discs) • a. Add 1.25 mL from the prepared PBS-AP conical tube to each well (11 wells) • b. Add 100 μL of the test material to the well, mix with the same pipette tip, dispose and repeat for the rest of the test materials • c. Wrap the plate in saran wrap and place into the container • 2. Plate 2 (Discs) • a. Configure the 11 discs in the plate so the plate cover is stable • b. Add 1.25 mL from the prepared PBS-AP conical tube to each well (11 wells) • c. Add 100 μL of the test material to the center of the disc and repeat for the rest of the test materials • d. Put the plate cover on and place into the container • 3. […] Incubate for 1 hour
# For the new study, the alkaline phosphatase was suspended in phosphate buffered saline (PBS) to make the reaction reagent. Then, 100 μL of the test chemical is added directly into the corresponding wells on a 24-well plate with 1.25 mL of alkaline phosphatase reaction reagent already aliquoted.
# • 1. Alkaline phosphatase reaction reagent • a. Take 1 vial of AP, add 1 mL of PBS, mix by pipette/re-pipette 10 times • b. To a 50 mL conical tube, add 1 mL of the AP solution prepared above and 40 mL of PBS • 2. Prepare two 24-well plates • 3. […] Aliquot with 200 μL PNPP and PBS • 4. Prepare glass vials Repeat Procedure from Jan. […] 24-well plate • a. Add 1.25 mL from the prepared PBS-AP conical tube to each well (11 wells) • b. Add 100 μL of the test material to the well, mix with the same pipette tip, dispose and repeat for the rest of the test materials • c. Wrap the plate in saran wrap and place into the container • 2. […] To the prepared 96-well plate with 200 μL PNPP or PBS, add 20 μL from the 24-well plate • 4. Incubate for 1 hour • 5.
# • 1. 24-well plate • a. Add 1.25 mL from the prepared PBS-AP conical tube to each well (11 wells) • b. Add 100 μL of the test material to the well, mix with the same pipette tip, dispose and repeat for the rest of the test materials • c. After 10 minutes, mix each well • 2.
# [6] = test system: porcine skin; details: R 1 and 2
# Method: Our initial studies involved using fresh and frozen porcine skin “buttons”. These buttons were punched out of porcine skin (Spear Products, Cooopersburg, PA) using a […] biopsy punch tool. Three different kinds of skin buttons were prepared from fresh porcine skin, frozen porcine skin, and frozen porcine skin with the fatty layer removed. […] The next day, the tubes were taken out and vortexed and 500 μL of the solution was aliquoted into cuvettes to read at three different optical density wavelengths (OD190, OD290, OD300) to evaluate the best response.
# • 1. Thaw 2 pieces of frozen porcine skin • 2. Punch out buttons: 24 buttons in each tube filled with 40 mL PBS-Azide
# • 1. Plate layout for dosing:
# • 1. Dose each tissue with 140 μL of test chemical • 2.
# • 1. Take out of incubator and vortex pulse 3× • 2. Aliquot 500 μL to cuvette and read results at OD190, OD290, and OD300
# There were three readings done at an optical density of 190, 290, and 300 nm to evaluate the best response. […] To address the variable exposure conditions, our next studies involved placing a larger porcine skin section into a holder that exposes only the epidermis side with no potential for test chemical exposure from the backside or through the sides.
# [7] = 4 mL glass vials, 30 μL into 300 μL, 1:100, 4 hours room temperature, 3 mL PNPP 1 hour
# [8] = 1:100, 20 μL into 180 μL, 0.5 mL microcentrifuge tubes, 4 hours RT, PNPP 60 min, 405 nm
# [9] = average of R1-R3, 1:100, 20 μL into 180 μL, 4 hours RT, PNPP 60 min, 405 nm
# [10] = 10-minute test chemical exposure
# [11] = fresh porcine skin, 140 μL, 18 hours at 37° C. in PBS-Azide
# [12] = frozen porcine skin with fat layer removed
# T1 sequence (P19111 20-506): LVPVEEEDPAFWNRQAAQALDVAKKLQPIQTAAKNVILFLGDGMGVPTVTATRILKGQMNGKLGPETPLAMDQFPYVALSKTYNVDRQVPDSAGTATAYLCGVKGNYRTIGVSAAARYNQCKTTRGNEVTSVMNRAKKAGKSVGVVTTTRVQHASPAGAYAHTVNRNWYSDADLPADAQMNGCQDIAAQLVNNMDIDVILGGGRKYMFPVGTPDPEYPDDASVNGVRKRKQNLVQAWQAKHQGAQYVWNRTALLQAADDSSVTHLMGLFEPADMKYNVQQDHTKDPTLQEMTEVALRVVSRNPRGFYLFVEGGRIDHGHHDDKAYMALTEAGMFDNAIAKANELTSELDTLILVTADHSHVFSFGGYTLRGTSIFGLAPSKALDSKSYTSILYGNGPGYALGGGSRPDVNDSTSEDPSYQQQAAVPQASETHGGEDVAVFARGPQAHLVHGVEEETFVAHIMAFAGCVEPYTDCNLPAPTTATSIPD
smiles,measurement,setting,value
Cc1ccc(C(C)C)cc1O,OD405 readings (FIG. 11D),[1]; [7],3.444 and 3.465 and 3.398
same,in vivo GHS,"[2]; skin, chemical lists of the protocols",Cat. 1B/1C
same,A1-Results R1,[3]; [8],0.211
same,A1-Results R3,[3]; [8],0.272
same,OD405 readings (FIG. 11B),[3]; [7],1.990 and 1.926
same,A1-Results AVG,[3]; [9],0.242
same,prediction based on OD405 values (FIG. 6B),"[3]; original alkaline phosphatase 1:1, 18 hours room temperature",incorrectly predicted
same,OD405 readings (FIG. 6D),"[3]; original alkaline phosphatase 1:100 (100 units), 100 μL into 1 mL, 18 hours room temperature, PNPP 1 hour",0.991 and 0.974 and 1.167
"C=CCCC=C [1,5-Hexadiene]",OD405 reading (FIG. 7A),[1],1.702
same,OD405 reading (FIG. 7B),[1],2.947
same,A1-Results R1,[3]; [8],3.502
same,A1-Results R3,[3]; [8],3.498
same,A1-Results AVG,[3]; [9],3.496
ClCCCCBr [1-Bromo-4-chlorobutane],OD405 reading (FIG. 9B),[1],0.799
same,A1-Results R1,[3]; [8],3.387
same,A1-Results R3,[3]; [8],3.502
same,A1-Results AVG,[3]; [9],3.464
CC(=O)O [Acetic acid],Corrosive,"[2]; rabbit, in vivo",Yes
same,percent of phosphatase measured (first reading),[4],19.1%
same,percent of phosphatase measured (second reading),[4],18.6%
same,"percent of phosphatase measured, average",[4],18.9%
same,A1-Results AVG,[3],0.096
same,A1-Results R1,[3],0.096
same,A1-Results R3,[3],0.096
same,optical density readings (FIG. 3A),[3],0.106 and 0.102 and 0.103
same,optical density readings (FIG. 3B),[5],0.104 and 0.129 and 0.101
CN(C)CCCNCCCN [Dimethyldipropylenetriamine],Corrosive,[2]; Table 2,Yes
same,percent of phosphatase measured (first reading),[4],23.5%
same,percent of phosphatase measured (second reading),[4],17.7%
same,"percent of phosphatase measured, average",[4],20.6%
same,A1-Results R1,[3]; [8],0.118
same,A1-Results R3,[3]; [8],0.124
same,1-hour PNPP incubation readings (FIG. 5B),[3]; [10],0.352 and 0.283 and 0.333
same,4-hour PNPP incubation readings (FIG. 5C),[3]; [10],0.122 and 0.116 and 0.114
same,A1-Results AVG,[3]; [9],0.121
same,optical density readings (FIG. 3B),"[3]; without discs, 100 μL into 1.25 mL reaction reagent (10,000 units), 18 hours 37° C., PNPP 1 hour, 405 nm",0.138 and 0.176 and 0.133
same,OD190,[6]; [11],>3A
same,OD290,[6]; [11],0.922 and 1.016
same,OD300,[6]; [11],0.819 and 0.887
same,OD190,[6]; [12],0.610 and 0.594
same,OD290,[6]; [12],0.238 and 0.170
same,OD300,[6]; [12],0.162 and 0.118
same,OD190,[6]; frozen porcine skin,>3A
same,OD290,[6]; frozen porcine skin,0.936 and 0.775
same,OD300,[6]; frozen porcine skin,0.806 and 0.636
same,10-minute PNPP incubation readings (FIG. 5A),[5]; [10],3.449 and 3.502 and 3.500
same,18-hour PNPP incubation readings (FIG. 5D),[5]; [10],0.112 and 0.105 and 0.110
same,prediction based on OD405 values (FIG. 6C),[5]; original alkaline phosphatase 1:10 dilution,mispredicted
same,prediction based on OD405 values (FIG. 6D),[5]; original alkaline phosphatase 1:100 dilution,correctly predicted
same,optical density readings (FIG. 4),"[5]; repeat, without discs, 18 hours 37° C., PNPP 1 hour, 405 nm",0.132 and 0.128 and 0.127
same,optical density readings (FIG. 3A),"[5]; with discs, 100 μL into 1.25 mL reaction reagent (10,000 units), 18 hours 37° C., PNPP 1 hour, 405 nm",0.152 and 0.159 and 0.140
